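GI50: concentration for 50% inhibition of growth. At the TGI there is no net growth.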
Key:
Assay in all cases: DTP human tumour cell line panel, 384-well format
OVCAR-5 ovarian = test system: OVCAR-5 ovarian
MOLT-4 leukemia = test system: MOLT-4 leukemia
HS 578T breast = test system: HS 578T breast
SNB-19 CNS = test system: SNB-19 CNS
IGROV1 ovarian = test system: IGROV1 ovarian
SNB-75 CNS = test system: SNB-75 CNS
NCI-H23 lung = test system: NCI-H23 lung
MCF7 breast = test system: MCF7 breast
OVCAR-4 ovarian = test system: OVCAR-4 ovarian
M14 melanoma = test system: M14 melanoma
NCI-H460 NSCLC = test system: NCI-H460 NSCLC
SK-MEL-28 melanoma = test system: SK-MEL-28 melanoma
MDA-MB-435 melanoma = test system: MDA-MB-435 melanoma
COLO 205 colon = test system: COLO 205 colon
786-0 renal = test system: 786-0 renal
HOP-62 NSCLC = test system: HOP-62 NSCLC
BT-549 breast = test system: BT-549 breast
SN12C renal = test system: SN12C renal
EKVX NSCLC = test system: EKVX NSCLC
RPMI-8226 leukemia = test system: RPMI-8226 leukemia
U251 glioblastoma = test system: U251 glioblastoma
HCC-2998 colon = test system: HCC-2998 colon
SK-MEL-2 melanoma = test system: SK-MEL-2 melanoma
NCI-H322M lung = test system: NCI-H322M lung
UACC-62 melanoma = test system: UACC-62 melanoma
HT29 colon = test system: HT29 colon
KM12 colon = test system: KM12 colon
SW-620 colon = test system: SW-620 colon
HCT-116 colon = test system: HCT-116 colon
SF-539 CNS = test system: SF-539 CNS
TK-10 renal = test system: TK-10 renal
RXF 393 renal = test system: RXF 393 renal
A498 renal = test system: A498 renal
NCI-H226 lung = test system: NCI-H226 lung
CAKI-1 renal = test system: CAKI-1 renal
SK-MEL-5 melanoma = test system: SK-MEL-5 melanoma
A549 NSCLC = test system: A549 NSCLC
MALME-3M melanoma = test system: MALME-3M melanoma
K-562 leukemia = test system: K-562 leukemia
CCRF-CEM leukemia = test system: CCRF-CEM leukemia
SK-OV-3 ovarian = test system: SK-OV-3 ovarian
SF-268 CNS = test system: SF-268 CNS
MDA-MB-468 breast = test system: MDA-MB-468 breast
NCI/ADR-RES ovarian = test system: NCI/ADR-RES ovarian
PC-3 prostate = test system: PC-3 prostate
OVCAR-3 ovarian = test system: OVCAR-3 ovarian
NCI-H522 lung = test system: NCI-H522 lung

COCCOc1cc(F)c2c(Nc3ccc(NC(=O)Cn4cc(C(C)C)nn4)cc3)ncnc2c1
GI50 (OVCAR-5 ovarian): 87.8 µM | TGI (OVCAR-5 ovarian): > 100 µM | GI50 (MOLT-4 leukemia): 3.68 µM | TGI (MOLT-4 leukemia): 18.7 µM | GI50 (HS 578T breast): 12.2 µM | TGI (HS 578T breast): 82.3 µM | GI50 (SNB-19 CNS): > 100 µM | TGI (SNB-19 CNS): > 100 µM | GI50 (IGROV1 ovarian): 53.5 µM | TGI (IGROV1 ovarian): > 100 µM | GI50 (SNB-75 CNS): 11.9 µM | TGI (SNB-75 CNS): > 100 µM | GI50 (NCI-H23 lung): 35.6 µM | TGI (NCI-H23 lung): > 100 µM | GI50 (MCF7 breast): 21.9 µM | TGI (MCF7 breast): > 100 µM | GI50 (OVCAR-4 ovarian): > 100 µM | TGI (OVCAR-4 ovarian): > 100 µM | GI50 (M14 melanoma): 59 µM | TGI (M14 melanoma): > 100 µM | GI50 (NCI-H460 NSCLC): 31.7 µM | TGI (NCI-H460 NSCLC): > 100 µM | GI50 (SK-MEL-28 melanoma): > 100 µM | TGI (SK-MEL-28 melanoma): > 100 µM | GI50 (MDA-MB-435 melanoma): 62.1 µM | TGI (MDA-MB-435 melanoma): > 100 µM | GI50 (COLO 205 colon): 40.8 µM | TGI (COLO 205 colon): > 100 µM | GI50 ([…]-0 renal): 49.7 µM | TGI (786-0 renal): > 100 µM | GI50 (HOP-62 NSCLC): 18.1 µM | TGI (HOP-62 NSCLC): > 100 µM | GI50 (BT-549 breast): 38.4 µM | TGI (BT-549 breast): > 100 µM | GI50 (SN12C renal): 12.9 µM | TGI (SN12C renal): > 100 µM | GI50 (EKVX NSCLC): 41 µM | TGI (EKVX NSCLC): > 100 µM | GI50 (RPMI-8226 leukemia): 5.06 µM | TGI (RPMI-8226 leukemia): 34.3 µM | GI50 (U251 glioblastoma): 57.9 µM | TGI (U251 glioblastoma): > 100 µM | GI50 (HCC-2998 colon): 29.3 µM | TGI (HCC-2998 colon): > 100 µM | GI50 (SK-MEL-2 melanoma): 66.7 µM | TGI (SK-MEL-2 melanoma): > 100 µM | GI50 (NCI-H322M lung): > 100 µM | TGI (NCI-H322M lung): > 100 µM | GI50 (UACC-62 melanoma): 31.1 µM | TGI (UACC-62 melanoma): > 100 µM | GI50 (HT29 colon): > 100 µM | TGI (HT29 colon): > 100 µM | GI50 (KM12 colon): 0.56 µM | TGI (KM12 colon): > 100 µM | GI50 (SW-620 colon): 52 µM | TGI (SW-620 colon): > 100 µM | GI50 (HCT-116 colon): 48.7 µM | TGI (HCT-116 colon): > 100 µM | GI50 (SF-539 CNS): 11.6 µM | TGI (SF-539 CNS): > 100 µM | GI50 (TK-10 renal): 29.8 µM | TGI (TK-10 renal): > 100 µM | GI50 (RXF 393 renal): 39.8 µM | TGI (RXF 393 renal): > 100 µM | GI50 (A498 renal): 79.9 µM | TGI (A498 renal): > 100 µM | GI50 (NCI-H226 lung): 7.16 µM | TGI (NCI-H226 lung): > 100 µM | GI50 (CAKI-1 renal): 38.4 µM | TGI (CAKI-1 renal): > 100 µM | GI50 (SK-MEL-5 melanoma): 11.2 µM | TGI (SK-MEL-5 melanoma): > 100 µM | GI50 (A549 NSCLC): 53.2 µM | TGI (A549 NSCLC): > 100 µM | GI50 (MALME-3M melanoma): 25 µM | TGI (MALME-3M melanoma): > 100 µM | GI50 (K-562 leukemia): 3.25 µM | TGI (K-562 leukemia): > 100 µM | GI50 (CCRF-CEM leukemia): 7.64 µM | TGI (CCRF-CEM leukemia): 37.9 µM | GI50 (SK-OV-3 ovarian): 86.1 µM | TGI (SK-OV-3 ovarian): > 100 µM | GI50 (SF-268 CNS): 43.1 µM | TGI (SF-268 CNS): > 100 µM | GI50 (MDA-MB-468 breast): 7.69 µM | TGI (MDA-MB-468 breast): > 100 µM | GI50 (NCI/ADR-RES ovarian): > 100 µM | TGI (NCI/ADR-RES ovarian): > 100 µM | GI50 (PC-3 prostate): 62.9 µM | TGI (PC-3 prostate): > 100 µM | GI50 (OVCAR-3 ovarian): 50.7 µM | TGI (OVCAR-3 ovarian): > 100 µM | GI50 (NCI-H522 lung): 18.1 µM | TGI (NCI-H522 lung): 92.3 µM

Reference: PubChem BioAssay (NCI)
